Experimental data as given in ChEMBL document CHEMBL4312023, “Design of novel monoamine oxidase-B inhibitors based on piperine scaffold: Structure-activity-toxicity, drug-likeness and efflux transport studies” (Eur J Med Chem, 2020).
One block for each compound: values may come before it. Activity calls are given as the source filed them. No cut-off for these calls is given here.

What was measured:
[1] = target: T1, Amine oxidase [flavin-containing] B (Homo sapiens, UniProt P27338); test: Reversible inhibition of human microsomal MAO-B expressed in baculovirus infected BTI-TN-5B1-4 cells assessed as 4-hydroxyquinoline formation using kynuramine as substrate incubated up to 140 mins by spectrophotometric analysis; conditions: bti-tn-5b1-4, 140 min
T1 sequence (P27338 whole entry): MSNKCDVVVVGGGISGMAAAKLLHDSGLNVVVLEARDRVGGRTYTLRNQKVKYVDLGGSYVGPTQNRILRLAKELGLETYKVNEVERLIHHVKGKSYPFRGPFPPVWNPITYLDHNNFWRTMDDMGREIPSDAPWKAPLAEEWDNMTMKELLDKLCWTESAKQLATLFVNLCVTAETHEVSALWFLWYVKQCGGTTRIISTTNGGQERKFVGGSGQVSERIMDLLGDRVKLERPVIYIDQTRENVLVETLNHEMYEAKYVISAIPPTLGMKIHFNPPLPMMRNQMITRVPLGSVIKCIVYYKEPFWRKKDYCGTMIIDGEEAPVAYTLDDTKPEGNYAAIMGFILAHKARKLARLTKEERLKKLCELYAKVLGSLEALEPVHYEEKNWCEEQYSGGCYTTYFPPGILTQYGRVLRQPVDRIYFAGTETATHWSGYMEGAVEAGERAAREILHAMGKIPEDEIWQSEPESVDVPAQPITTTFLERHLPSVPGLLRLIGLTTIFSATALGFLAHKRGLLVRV

[2] = Chromatographic hydrophobicity index of compound at 250 uM at pH 7.4 by HPLC analysis; type: ADME; conditions: pH 7.4, 250 µM
[3] = Retention time of compound at pH 7.4 by LC-UV analysis; type: physicochemical; conditions: buffer
[4] = Cytotoxicity against human SH-SY5Y cells assessed as lysosomal activity by measuring neutral red uptake at 50 uM incubated for 24 hrs followed by incubation with neutral red solution for 2 hrs by microplate reader analysis (reference value: >85%); type: cell-based; conditions: read-out: Activity
Homo sapiens = species on record: Homo sapiens; test: Selectivity index, ratio of IC50 for human microsomal MAO-A expressed in baculovirus infected […] cells to IC50 for human microsomal MAO-B expressed in baculovirus infected […] cells using kynuramine as substrate
[5] = Cytotoxicity against human SH-SY5Y cells assessed as cellular metabolic activity by measuring resazurin reduction at 50 uM incubated for 24 hrs followed by incubation with resazurin for 2 hrs by fluorescence based assay (reference value: >85 %); type: ADME, cell-based; conditions: read-out: Activity
[6] = target: T1, Amine oxidase [flavin-containing] B; test: biochemical; type: cell-based, BTI-TN-5B1-4
Description: Inhibition of human microsomal MAO-B expressed in baculovirus infected BTI-TN-5B1-4 cells assessed as reduction in 4-hydroxyquinoline formation using kynuramine as substrate preincubated with substrate for 10 mins followed by enzyme addition by spectrophotometric analysis

[7] = Solubility of compound in sodium phosphate buffer at >10 uM at pH 7.4; type: physicochemical
[8] = Cytotoxicity against human SH-SY5Y cells assessed as lysosomal activity by measuring neutral red uptake at 10 to 50 uM incubated for 24 hrs followed by incubation with neutral red solution for 2 hrs by microplate reader analysis (reference value: >85%); type: cell-based; conditions: SH-SY5Y cells, read-out: Activity
[9] = target: T2, Amine oxidase [flavin-containing] A (Homo sapiens, UniProt P21397); conditions: BTI-TN-5B1-4, human, read-out: INH
T2 sequence (P21397 whole entry): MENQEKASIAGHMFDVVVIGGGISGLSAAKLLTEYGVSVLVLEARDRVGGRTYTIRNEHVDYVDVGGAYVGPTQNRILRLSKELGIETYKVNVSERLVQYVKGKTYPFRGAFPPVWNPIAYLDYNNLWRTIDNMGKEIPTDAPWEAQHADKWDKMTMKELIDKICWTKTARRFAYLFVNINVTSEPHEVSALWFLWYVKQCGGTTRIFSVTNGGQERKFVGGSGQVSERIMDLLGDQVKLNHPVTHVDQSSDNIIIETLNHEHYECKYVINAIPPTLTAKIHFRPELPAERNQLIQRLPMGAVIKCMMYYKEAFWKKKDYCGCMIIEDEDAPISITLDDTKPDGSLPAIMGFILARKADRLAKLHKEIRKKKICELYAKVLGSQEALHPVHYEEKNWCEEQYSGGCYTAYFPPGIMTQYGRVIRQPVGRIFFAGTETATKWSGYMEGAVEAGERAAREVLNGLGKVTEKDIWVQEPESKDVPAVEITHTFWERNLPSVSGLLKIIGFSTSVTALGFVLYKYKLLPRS
Description: Inhibition of human microsomal MAO-A expressed in baculovirus infected BTI-TN-5B1-4 cells assessed as reduction in 4-hydroxyquinoline formation at 10 uM using kynuramine as substrate preincubated with substrate for 10 mins followed by enzyme inhibition by spectrophotometric analysis

[10] = Cytotoxicity against human Caco2 cells assessed as lysosomal activity by measuring neutral red uptake at 10 to 50 uM incubated for 24 hrs followed by incubation with neutral red solution for 1 hr by microplate reader analysis (reference value: >85%); type: cell-based; conditions: Caco-2 cells, read-out: Activity
[11] = target: T3, ATP-dependent translocase ABCB1 (Homo sapiens, UniProt P08183); test: (§1) Inhibition of P-gp in human Caco2 cells assessed as decrease in Rho123 efflux by measuring decrease in ratio between fluorescence intensity of Zos-inhibited Rho123 accumulation and fluorescence intensity of non-inhibited Rho123 accumulation at 10 uM using Rho123 as substrate preincubated for 30 mins in presence of 5 uM P-gp inhibitor, Zos followed by incubation with Rhodamine 123 for 90 mins by fluorescence spectroscopy analysis; type: cell-based; conditions: 1.5 h
[12] = Cytotoxicity against human Caco2 cells assessed as cellular metabolic activity by measuring resazurin reduction at 10 to 50 uM incubated for 24 hrs followed by incubation with resazurin for 1 hr by fluorescence based assay (reference value: >85%); type: ADME, cell-based; conditions: Caco-2 cells, read-out: Activity
[13] = Chromatographic hydrophobicity index, log D of compound at 250 uM at pH 7.4 by HPLC analysis; type: physicochemical; conditions: buffer
[14] = Cytotoxicity against human SH-SY5Y cells assessed as cellular metabolic activity by measuring resazurin reduction at 10 to 50 uM incubated for 24 hrs followed by incubation with resazurin for 2 hrs by fluorescence based assay (reference value: >85%); type: ADME, cell-based; conditions: SH-SY5Y cells, read-out: Activity
[15] = target: T1, Amine oxidase [flavin-containing] B; test: Competitive inhibition of human microsomal MAO-B expressed in baculovirus infected BTI-TN-5B1-4 cells assessed as increase in substrate Km using kynuramine as substrate preincubated with substrate at varying concentrations for 10 mins followed by enzyme addition by Lineweaver-Burk plot analysis
[16] = target: T1, Amine oxidase [flavin-containing] B; test: Competitive inhibition of human microsomal MAO-B expressed in baculovirus infected BTI-TN-5B1-4 cells assessed as constant Vmax using kynuramine as substrate preincubated with substrate at varying concentrations for 10 mins followed by enzyme addition by Lineweaver-Burk plot analysis
[17] = target: T1, Amine oxidase [flavin-containing] B; test: Competitive inhibition of human microsomal MAO-B expressed in baculovirus infected BTI-TN-5B1-4 cells assessed as inhibition constant using kynuramine as substrate preincubated with substrate at varying concentrations for 10 mins followed by enzyme addition by Lineweaver-Burk plot analysis
[18] = target: T3, ATP-dependent translocase ABCB1; test: as §1, with “Induction of” for “Inhibition of”, “Rho123 intracellular accumulation” for “Rho123 efflux”, “measuring increase” for “measuring decrease”; type: cell-based; conditions: 1.5 h
[19] = target: T2, Amine oxidase [flavin-containing] A; test: biochemical
Description: Inhibition of human microsomal MAO-A expressed in baculovirus infected BTI-TN-5B1-4 cells assessed as reduction in 4-hydroxyquinoline formation using kynuramine as substrate preincubated with substrate for 10 mins followed by enzyme addition by spectrophotometric analysis

[20] = target: T1, Amine oxidase [flavin-containing] B; test: Inhibition of human microsomal MAO-B expressed in baculovirus infected BTI-TN-5B1-4 cells assessed as reduction in 4-hydroxyquinoline formation at 10 uM using kynuramine as substrate preincubated with substrate for 10 mins followed by enzyme addition by spectrophotometric analysis; conditions: BTI-TN-5B1-4, human
SH-SY5Y = test: Induction of intracellular oxidative stress in human SH-SY5Y cells assessed as increase in reactive species level at 10 to 50 uM pretreated with DCFH-DA for 1.5 hrs followed by incubation with compound for 24 hrs by DCFH-DA dye based fluorescence assay relative to control; type: cell-based
Caco-2 = test: Effect on P-gp protein expression in human Caco-2 cells at 10 uM incubated for 30 mins; type: functional, cell-based

T3 sequence (P08183 whole entry): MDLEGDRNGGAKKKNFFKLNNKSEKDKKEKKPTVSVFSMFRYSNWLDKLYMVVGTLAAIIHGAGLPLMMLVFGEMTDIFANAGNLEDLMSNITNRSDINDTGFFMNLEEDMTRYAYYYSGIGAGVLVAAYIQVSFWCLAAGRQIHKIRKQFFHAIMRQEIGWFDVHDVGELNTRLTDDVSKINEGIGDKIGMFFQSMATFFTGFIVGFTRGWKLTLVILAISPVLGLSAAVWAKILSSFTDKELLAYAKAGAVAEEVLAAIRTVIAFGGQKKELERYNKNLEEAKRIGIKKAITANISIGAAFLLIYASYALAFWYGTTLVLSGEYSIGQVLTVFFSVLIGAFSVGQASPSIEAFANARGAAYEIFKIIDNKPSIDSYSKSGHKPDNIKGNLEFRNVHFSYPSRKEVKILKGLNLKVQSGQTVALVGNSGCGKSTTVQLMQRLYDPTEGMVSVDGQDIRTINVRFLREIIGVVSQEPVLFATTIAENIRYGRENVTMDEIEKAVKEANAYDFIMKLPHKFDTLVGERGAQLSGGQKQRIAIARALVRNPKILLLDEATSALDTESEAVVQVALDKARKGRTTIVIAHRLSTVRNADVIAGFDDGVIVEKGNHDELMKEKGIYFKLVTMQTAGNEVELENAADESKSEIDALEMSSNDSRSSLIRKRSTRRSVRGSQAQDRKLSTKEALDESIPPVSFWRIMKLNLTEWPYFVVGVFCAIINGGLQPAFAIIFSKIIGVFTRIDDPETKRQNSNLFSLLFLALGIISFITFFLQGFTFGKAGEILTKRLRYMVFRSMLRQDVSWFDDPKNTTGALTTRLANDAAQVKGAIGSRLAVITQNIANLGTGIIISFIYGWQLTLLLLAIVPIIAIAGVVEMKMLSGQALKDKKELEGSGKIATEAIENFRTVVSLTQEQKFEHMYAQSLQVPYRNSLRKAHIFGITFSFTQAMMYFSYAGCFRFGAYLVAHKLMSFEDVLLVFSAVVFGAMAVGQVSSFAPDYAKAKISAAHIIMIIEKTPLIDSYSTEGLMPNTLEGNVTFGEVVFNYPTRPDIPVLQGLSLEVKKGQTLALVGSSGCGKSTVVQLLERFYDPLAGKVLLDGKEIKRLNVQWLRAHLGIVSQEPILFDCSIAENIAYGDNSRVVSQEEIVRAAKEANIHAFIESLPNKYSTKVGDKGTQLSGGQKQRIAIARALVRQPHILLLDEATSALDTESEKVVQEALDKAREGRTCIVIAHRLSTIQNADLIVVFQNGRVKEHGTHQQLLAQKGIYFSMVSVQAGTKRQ

IC50 [6]: 0.156 µM
solubility [7]: Insoluble
SMILES: O=C(/C=C/C=C/c1ccc2c(c1)OCO2)Oc1ccccc1
viability at 24 h, 50 µM [4]: 59.4%
Ratio IC50 (Homo sapiens): > 64
viability at 24 h, 50 µM [5]: 79.7%

inhibition at 10 µM [9]: < 50%
CHI [2]: 100.75
IC50 [6]: 0.0992 µM
inhibition (INH) [11]: Active
Retention_time [3]: 12.37 min
chromatographic logD at 250 µM [13]: 3.82
SMILES: N#C/C(=C\C=C\c1ccc2c(c1)OCO2)C(=O)OCCc1ccccc1
viability at 24 h [8]: > 85%
viability at 24 h [10]: > 85%
Ratio IC50 (Homo sapiens): > 101
viability at 24 h, up to 50 µM [12]: > 85%
viability at 24 h, up to 50 µM [14]: > 85%

inhibition (INH) [15]: Active
inhibition (INH) [16]: Active
Ki [17]: 0.075 µM
Activity [18]: Not Active
CHI [2]: 102.14
IC50 [6]: 0.167 µM
inhibition (INH) [11]: Not Active
IC50 [19]: 4.24 µM
Retention_time [3]: 12.46 min
chromatographic logD at 250 µM [13]: 3.9
SMILES: O=C(/C=C/C=C/c1ccc2c(c1)OCO2)OCc1ccccc1
viability at 24 h [8]: > 85%
viability at 24 h [10]: > 85%
Ratio IC50 (Homo sapiens): 25
viability at 24 h, up to 50 µM [12]: > 85%
viability at 24 h, up to 50 µM [14]: > 85%

inhibition at 10 µM [9]: < 50%
inhibition at 10 µM [20]: < 50%
SMILES: O=C(/C=C/C=C/c1ccc2c(c1)OCO2)Nc1ccccc1

inhibition at 10 µM [9]: < 50%
inhibition at 10 µM [20]: < 50%
SMILES: O=C(/C=C/C=C/c1ccc2c(c1)OCO2)NCCc1ccccc1

inhibition at 10 µM [9]: < 50%
inhibition at 10 µM [20]: < 50%
SMILES: N#C/C(=C\C=C\c1ccc2c(c1)OCO2)C(=O)NCCc1ccccc1

CHI [2]: 58.45
Retention_time [3]: 9.3 min
SMILES: NC(=O)N1c2ccccc2C=Cc2ccccc21 [CARBAMAZEPINE]

Continued, compound first:

SMILES: C[C@H](NCc1ccc(OCc2cccc(F)c2)cc1)C(N)=O [SAFINAMIDE]
inhibition (INH) [1]: Active

SMILES: c1ccc2[nH]ccc2c1 [INDOLE]
CHI [2]: 69.15
Retention_time [3]: 10.27 min

SMILES: CC(=O)Nc1ccc(O)cc1 [ACETAMINOPHEN]
CHI [2]: 20.59
Retention_time [3]: 7.45 min

SMILES: CCCCCCC(=O)c1ccccc1
CHI [2]: 111.8
Retention_time [3]: 13.67 min

SMILES: O=C(O)/C=C/C=C/c1ccc2c(c1)OCO2 [PIPERIC ACID]
inhibition at 10 µM [9]: < 50%
inhibition at 10 µM [20]: < 50%

SMILES: N#C/C(=C\C=C\c1ccc2c(c1)OCO2)C(=O)N1CCCCC1
viability at 24 h [8]: > 85%
Activity (SH-SY5Y): 111.1%
inhibition (INH) [15]: Active
inhibition (INH) [16]: Active
inhibition at 10 µM [9]: < 50%
Ki [17]: 0.0206 µM
viability at 24 h [10]: > 85%
Activity [18]: Not Active
Ratio IC50 (Homo sapiens): > 70
IC50 [6]: 0.143 µM
viability at 24 h, up to 50 µM [12]: > 85%
Activity (Caco-2): inactive
viability at 24 h, up to 50 µM [14]: > 85%

SMILES: CCCCC(=O)c1ccccc1 [VALEROPHENONE]
CHI [2]: 97.67
Retention_time [3]: 12.04 min
